Experimental data taken from PubChem BioAssay (NCI).
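A five-concentration, 48-hour dose response in 96-well plates underlies each endpoint, interpolated linearly between surrounding concentrations. At the TGI there is no net growth.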

What was measured:
Assay in all cases: DTP human tumour cell line panel, 48 h
MCF7 breast = test system: MCF7 breast
HCT-116 colon = test system: HCT-116 colon
NCI-H460 lung = test system: NCI-H460 lung
LOX IMVI melanoma = test system: LOX IMVI melanoma
SF-295 CNS = test system: SF-295 CNS
CCRF-CEM leukemia = test system: CCRF-CEM leukemia
ACHN renal = test system: ACHN renal
OVCAR-8 ovarian = test system: OVCAR-8 ovarian
CAKI-1 renal = test system: CAKI-1 renal
MDA-MB-435 = test system: MDA-MB-435
RXF 393 renal = test system: RXF 393 renal
BT-549 breast = test system: BT-549 breast
T-47D breast = test system: T-47D breast
OVCAR-5 ovarian = test system: OVCAR-5 ovarian
HT29 colon = test system: HT29 colon
NCI-H522 lung = test system: NCI-H522 lung
SK-MEL-5 melanoma = test system: SK-MEL-5 melanoma
M14 melanoma = test system: M14 melanoma
SN12C renal = test system: SN12C renal
SF-539 CNS = test system: SF-539 CNS
TK-10 renal = test system: TK-10 renal
SF-268 CNS = test system: SF-268 CNS
MALME-3M melanoma = test system: MALME-3M melanoma
K-562 leukemia = test system: K-562 leukemia
COLO 205 colon = test system: COLO 205 colon
786-0 renal = test system: 786-0 renal
RPMI-8226 leukemia = test system: RPMI-8226 leukemia
A549 NSCLC = test system: A549 NSCLC
HOP-92 NSCLC = test system: HOP-92 NSCLC
HS 578T breast = test system: HS 578T breast
IGROV1 ovarian = test system: IGROV1 ovarian
SR leukemia = test system: SR leukemia
PC-3 prostate = test system: PC-3 prostate
DU-145 prostate = test system: DU-145 prostate
EKVX NSCLC = test system: EKVX NSCLC
KM12 colon = test system: KM12 colon
U251 CNS = test system: U251 CNS
SK-OV-3 ovarian = test system: SK-OV-3 ovarian
SW-620 colon = test system: SW-620 colon
MDA-N = test system: MDA-N
HCC-2998 colon = test system: HCC-2998 colon
SNB-19 CNS = test system: SNB-19 CNS
UO-31 renal = test system: UO-31 renal
NCI-H23 lung = test system: NCI-H23 lung
MDA-MB-231 breast = test system: MDA-MB-231 breast
HCT-15 colon = test system: HCT-15 colon
NCI/ADR-RES ovarian = test system: NCI/ADR-RES ovarian
OVCAR-3 ovarian = test system: OVCAR-3 ovarian
SK-MEL-2 melanoma = test system: SK-MEL-2 melanoma
HL-60(TB) leukemia = test system: HL-60(TB) leukemia
HOP-62 NSCLC = test system: HOP-62 NSCLC
MOLT-4 leukemia = test system: MOLT-4 leukemia
UACC-62 melanoma = test system: UACC-62 melanoma
NCI-H226 lung = test system: NCI-H226 lung
OVCAR-4 ovarian = test system: OVCAR-4 ovarian
SNB-75 CNS = test system: SNB-75 CNS
SK-MEL-28 melanoma = test system: SK-MEL-28 melanoma
A498 renal = test system: A498 renal
UACC-257 melanoma = test system: UACC-257 melanoma

CCOC(=O)C1C(=O)C=C(c2cc(C)ccc2O)CC1c1cccc(Cl)c1 (stereo not given)
TGI (MCF7 breast): 74.5 µM | TGI (HCT-116 colon): > 100 µM | TGI (NCI-H460 lung): > 100 µM | TGI (LOX IMVI melanoma): 57.4 µM | TGI (SF-295 CNS): 76.3 µM | TGI (CCRF-CEM leukemia): 94.7 µM | TGI (ACHN renal): 51.7 µM | TGI (OVCAR-8 ovarian): > 100 µM | TGI (CAKI-1 renal): > 100 µM | TGI (MDA-MB-435): 8.23 µM | TGI (RXF 393 renal): 54.5 µM | TGI (BT-549 breast): > 100 µM | TGI (T-47D breast): > 100 µM | TGI (OVCAR-5 ovarian): > 100 µM | TGI (HT29 colon): 86.7 µM | TGI (NCI-H522 lung): 37 µM | TGI (SK-MEL-5 melanoma): 50.5 µM | TGI (M14 melanoma): > 100 µM | TGI (SN12C renal): 95.9 µM | TGI (SF-539 CNS): 47 µM | TGI (TK-10 renal): 57.7 µM | TGI (SF-268 CNS): 97.3 µM | TGI (MALME-3M melanoma): 75.6 µM | TGI (K-562 leukemia): 53.8 µM | TGI (COLO 205 colon): 34.9 µM | TGI (786-0 renal): > 100 µM | TGI (RPMI-8226 leukemia): 48.3 µM | TGI (A549 NSCLC): 49.1 µM | TGI (HOP-92 NSCLC): 61.5 µM | TGI (HS 578T breast): 58 µM | TGI (IGROV1 ovarian): 51.1 µM | TGI (SR leukemia): 34.9 µM | TGI (PC-3 prostate): > 100 µM | TGI (DU-145 prostate): > 100 µM | TGI (EKVX NSCLC): > 100 µM | TGI (KM12 colon): 69 µM | TGI (U251 CNS): 40.7 µM | TGI (SK-OV-3 ovarian): 79.7 µM | TGI (SW-620 colon): > 100 µM | TGI (MDA-N): 29.8 µM | TGI (HCC-2998 colon): 69.8 µM | TGI (SNB-19 CNS): 44.2 µM | TGI (UO-31 renal): 65.9 µM | TGI (NCI-H23 lung): 88.6 µM | TGI (MDA-MB-231 breast): 83.4 µM | TGI (HCT-15 colon): 13.2 µM | TGI (NCI/ADR-RES ovarian): 54.2 µM | TGI (OVCAR-3 ovarian): > 100 µM | TGI (SK-MEL-2 melanoma): 46.7 µM | TGI (HL-60(TB) leukemia): 63.5 µM | TGI (HOP-62 NSCLC): > 100 µM | TGI (MOLT-4 leukemia): > 100 µM | TGI (UACC-62 melanoma): 47 µM | TGI (NCI-H226 lung): 73.5 µM | TGI (OVCAR-4 ovarian): 56.2 µM

O=C1Nc2cc(Cl)ccc2C(=O)N2CCC[C@@H]12
TGI (SNB-75 CNS): > 100 µM | TGI (MCF7 breast): > 100 µM | TGI (HCT-116 colon): > 100 µM | TGI (NCI-H460 lung): > 100 µM | TGI (LOX IMVI melanoma): > 100 µM | TGI (SF-295 CNS): > 100 µM | TGI (CCRF-CEM leukemia): > 100 µM | TGI (ACHN renal): > 100 µM | TGI (OVCAR-8 ovarian): > 100 µM | TGI (SK-MEL-28 melanoma): > 100 µM | TGI (CAKI-1 renal): > 100 µM | TGI (MDA-MB-435): > 100 µM | TGI (A498 renal): > 100 µM | TGI (RXF 393 renal): > 100 µM | TGI (BT-549 breast): > 100 µM | TGI (T-47D breast): > 100 µM | TGI (OVCAR-5 ovarian): > 100 µM | TGI (HT29 colon): > 100 µM | TGI (NCI-H522 lung): > 100 µM | TGI (SK-MEL-5 melanoma): > 100 µM | TGI (UACC-257 melanoma): > 100 µM | TGI (M14 melanoma): > 100 µM | TGI (SN12C renal): > 100 µM | TGI (TK-10 renal): > 100 µM | TGI (SF-268 CNS): > 100 µM | TGI (MALME-3M melanoma): > 100 µM | TGI (K-562 leukemia): > 100 µM | TGI (COLO 205 colon): > 100 µM | TGI (786-0 renal): > 100 µM | TGI (RPMI-8226 leukemia): > 100 µM | TGI (A549 NSCLC): > 100 µM | TGI (HOP-92 NSCLC): > 100 µM | TGI (HS 578T breast): > 100 µM | TGI (IGROV1 ovarian): > 100 µM | TGI (PC-3 prostate): > 100 µM | TGI (DU-145 prostate): > 100 µM | TGI (EKVX NSCLC): > 100 µM | TGI (KM12 colon): > 100 µM | TGI (U251 CNS): > 100 µM | TGI (SK-OV-3 ovarian): > 100 µM | TGI (SW-620 colon): > 100 µM | TGI (MDA-N): > 100 µM | TGI (HCC-2998 colon): > 100 µM | TGI (SNB-19 CNS): > 100 µM | TGI (UO-31 renal): > 100 µM | TGI (NCI-H23 lung): > 100 µM | TGI (MDA-MB-231 breast): > 100 µM | TGI (HCT-15 colon): > 100 µM | TGI (NCI/ADR-RES ovarian): > 100 µM | TGI (SK-MEL-2 melanoma): > 100 µM | TGI (HL-60(TB) leukemia): > 100 µM | TGI (HOP-62 NSCLC): > 100 µM | TGI (UACC-62 melanoma): > 100 µM | TGI (NCI-H226 lung): 98.2 µM | TGI (OVCAR-4 ovarian): > 100 µM

CC(C)=CCC/C(C)=C/CO
TGI (MCF7 breast): > 100 µM | TGI (HCT-116 colon): > 100 µM | TGI (NCI-H460 lung): > 100 µM | TGI (LOX IMVI melanoma): > 100 µM | TGI (SF-295 CNS): > 100 µM | TGI (CCRF-CEM leukemia): > 100 µM | TGI (ACHN renal): > 100 µM | TGI (OVCAR-8 ovarian): > 100 µM | TGI (SK-MEL-28 melanoma): > 100 µM | TGI (CAKI-1 renal): > 100 µM | TGI (MDA-MB-435): > 100 µM | TGI (A498 renal): > 100 µM | TGI (BT-549 breast): > 100 µM | TGI (T-47D breast): > 100 µM | TGI (OVCAR-5 ovarian): > 100 µM | TGI (HT29 colon): > 100 µM | TGI (NCI-H522 lung): > 100 µM | TGI (SK-MEL-5 melanoma): > 100 µM | TGI (UACC-257 melanoma): > 100 µM | TGI (M14 melanoma): > 100 µM | TGI (SN12C renal): > 100 µM | TGI (SF-539 CNS): > 100 µM | TGI (TK-10 renal): > 100 µM | TGI (SF-268 CNS): > 100 µM | TGI (MALME-3M melanoma): > 100 µM | TGI (K-562 leukemia): > 100 µM | TGI (COLO 205 colon): > 100 µM | TGI (786-0 renal): > 100 µM | TGI (RPMI-8226 leukemia): > 100 µM | TGI (A549 NSCLC): > 100 µM | TGI (HS 578T breast): > 100 µM | TGI (IGROV1 ovarian): > 100 µM | TGI (PC-3 prostate): > 100 µM | TGI (DU-145 prostate): > 100 µM | TGI (EKVX NSCLC): > 100 µM | TGI (KM12 colon): > 100 µM | TGI (U251 CNS): > 100 µM | TGI (SK-OV-3 ovarian): > 100 µM | TGI (SW-620 colon): > 100 µM | TGI (MDA-N): > 100 µM | TGI (HCC-2998 colon): > 100 µM | TGI (SNB-19 CNS): > 100 µM | TGI (UO-31 renal): > 100 µM | TGI (NCI-H23 lung): > 100 µM | TGI (MDA-MB-231 breast): > 100 µM | TGI (HCT-15 colon): > 100 µM | TGI (NCI/ADR-RES ovarian): > 100 µM | TGI (OVCAR-3 ovarian): > 100 µM | TGI (SK-MEL-2 melanoma): > 100 µM | TGI (HL-60(TB) leukemia): > 100 µM | TGI (HOP-62 NSCLC): > 100 µM | TGI (MOLT-4 leukemia): > 100 µM | TGI (UACC-62 melanoma): > 100 µM | TGI (NCI-H226 lung): > 100 µM | TGI (OVCAR-4 ovarian): > 100 µM
